{"source": "patent US10532068B2", "about": "“Dual molecular delivery of oligonucleotides and peptide containing conjugates” (Merck Sharp & Dohme Corp., priority 2013, dated 2020)", "key": {"CTNNB1": {"tested_on": "CTNNB1", "test": "In vivo evaluation in mice: liver mRNA knockdown measurement (TaqMan qPCR)", "parameters": "species or system CD-1 mice", "details": "for time course of mRNA KD in DMD format compared to 5-fold higher dose of siRNA-III alone: FIG. 4, sequential dosing, peptide 15 min after siRNA", "protocol": "(§1) Female CD-1 mice (Charles River) were injected in accordance with either a sequential dosing paradigm or a co-dosing paradigm. In the sequential dosing paradigm, the targeted siRNA (SCE) is dosed at t=0 and the targeted peptide is separately dosed up to 2 hr before the SCE (−2 hr) or up to 24 hr after the SCE (+24 hr). In the co-dosing paradigm, the SCE and peptides are co-formulated and dosed together in the same formulation as a single injection at t=0. The mice were dosed either by intravenous (i.v.) or subcutaneous (s.c.) injection of SCE and peptide. For the i.v. doses, the compounds were injected into the tail vein of the mice. For the s.c. doses, the compounds were injected in the subcutaneous space on the back of the mouse between the shoulder blades. At the indicated harvest times (measured from t=0 when the siRNA was dosed, regardless of when the peptide was dosed), the animals were sacrificed and 3 mm liver punches were collected, preserved in RNAlater (Ambion), and stored at 4° C. Separate 5 mm liver punches were collected, placed in 96-well plates, frozen on dry ice, and stored at −80° C. until use.\nThe 3 mm liver punches were removed from RNAlater and homogenized in Trizol (Invitrogen) using a bead mill tissue lyser (Qiagen); disruption was performed for two 5-minute cycles at 30 Hz. RNA extraction was performed using 1-bromo-2-chloropropane (Acros Organics) and total RNA was isolated from the aqueous phase using the MagMax RNA isolation method (Ambion). […] TaqMan qPCR analysis was performed with an ABI 7900 Real-Time PCR System using TaqMan Fast Advanced Master Mix (Applied Biosystems). All TaqMan probes and primers for CTNNB1 and PPIB (housekeeping gene) were purchased from Applied Biosystems as pre-validated gene expression assays. Results are calculated by the comparative Ct method, where the difference between the CTNNB1 Ct value and the PPIB Ct value (ΔCt) is calculated and then further normalized relative to the PBS control by taking a second difference (ΔΔCt), as described previously (1)."}, "[1]": {"test": "siRNA metabolic stability (FIG. 6 legend)", "details": "order siRNA-I>siRNA-V>siRNA-VI"}, "RISC": {"molecular_target": "T1, RISC (Mus musculus, UniProt Q8CJG0)", "T1 construct": "from tissue; host or cells: liver of female CD-1 mice", "T1 sequence (Q8CJG0 whole entry)": "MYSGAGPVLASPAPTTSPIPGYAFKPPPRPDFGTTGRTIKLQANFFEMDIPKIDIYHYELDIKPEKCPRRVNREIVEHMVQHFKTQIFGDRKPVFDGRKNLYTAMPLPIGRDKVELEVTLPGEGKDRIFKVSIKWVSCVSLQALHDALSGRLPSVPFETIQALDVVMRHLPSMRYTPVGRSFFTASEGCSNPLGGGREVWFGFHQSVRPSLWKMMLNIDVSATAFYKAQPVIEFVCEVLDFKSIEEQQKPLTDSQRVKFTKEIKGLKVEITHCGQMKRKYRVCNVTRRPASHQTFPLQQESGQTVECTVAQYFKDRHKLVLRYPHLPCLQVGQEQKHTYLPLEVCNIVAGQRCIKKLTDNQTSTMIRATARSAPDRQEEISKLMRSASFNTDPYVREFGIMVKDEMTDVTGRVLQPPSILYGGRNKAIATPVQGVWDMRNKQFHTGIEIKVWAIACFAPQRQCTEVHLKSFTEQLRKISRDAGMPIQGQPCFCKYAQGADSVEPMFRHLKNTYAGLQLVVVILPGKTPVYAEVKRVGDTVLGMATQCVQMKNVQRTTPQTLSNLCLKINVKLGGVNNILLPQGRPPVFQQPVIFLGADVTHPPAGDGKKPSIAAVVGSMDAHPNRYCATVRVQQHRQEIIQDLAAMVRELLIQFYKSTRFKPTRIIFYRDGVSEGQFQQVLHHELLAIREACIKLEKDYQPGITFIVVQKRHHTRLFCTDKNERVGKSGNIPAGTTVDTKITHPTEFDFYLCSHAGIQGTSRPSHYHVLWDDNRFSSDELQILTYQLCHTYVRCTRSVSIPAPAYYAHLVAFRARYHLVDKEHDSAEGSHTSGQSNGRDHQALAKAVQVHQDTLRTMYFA", "test": "Quantitation of siRNA bound to RISC in mouse liver (Ago2 immunoprecipitation, stem-loop qPCR)", "type": "in vivo, CD-1 mice", "details": "FIG. 5", "protocol": "as §1, with “use. […]” for “use.”"}}, "note": "Strand notation (5' to 3'): a small letter for the sugar, then the base; units joined by * are phosphorothioate-linked, units joined directly phosphodiester-linked; [ ] holds rarer units or linkages, { } end groups; capitals alone tell only the bases. {NH2C6-invAb} = cap: inverted abasic residue carrying an aminohexyl phosphate (attachment handle); [invAb] = inverted abasic unit; m = 2'-O-methyl; f = 2'-fluoro", "data": [{"substance": "siRNA-I: CTNNB1 ds siRNA, passenger SEQ ID NO 1803, guide SEQ ID NO 1804 (sense {NH2C6-invAb}-mCmUfGmUmUfGfGfAmUmUfGfAmUmUmCfGfAfAfAmU*mU[invAb]; guide mU*fU*mU*fCmGfAmAfUmCfAmAfUmCfCmAfAmCfAmGmU*mU; targeting ligand attached via linker, site not given here)", "values": [{"measurement": "time course of mRNA KD in DMD format compared to 5-fold higher dose of siRNA-III alone", "setting": "CTNNB1", "result": "faster and greater KD"}, {"measurement": "effect of the timing of peptide dose on activity", "setting": "CTNNB1; FIG. 6, peptide within 2 hr before up to 24 hr after siRNA dose", "result": "does not significantly change the activity"}, {"measurement": "siRNA stability (metabolic stability)", "setting": "[1]", "result": "highly stable"}]}, {"substance": "siRNA-III: CTNNB1 ds siRNA, passenger SEQ ID NO 1803, guide SEQ ID NO 1806 (vinylPmoeT) (sense CUGUUGGAUUGAUUCGAAAUU; guide TUUCGAAUCAAUCCAACAGUU; vinylphosphonate MOE T; (1)..(1) aminohexyl phosphate inverted abasic cap; (1)..(2) 2′-O-methyl; (3)..(3) 2′-deoxy-2′-fluoro; (4)..(5) 2′-O-methyl; (6)..(8) 2′-deoxy-2′-fluoro; (9)..(10) 2′-O-methyl; (11)..(12) 2′-deoxy-2′-fluoro; (13)..(15) 2′-O-methyl; (16)..(19) 2′-deoxy-2′-fluoro; (20)..(21) 2′-O-methyl; (20)..(21) phosphorothioate internucleotide linkage; (21)..(21) inverted abasic cap; (1)..(1) terminal vinyl phosphate; (1)..(1) 2′-methoxyethoxy; (2)..(21) ribonucleotide unmodified or modified as described for this sequence; (2)..(2) 2′-deoxy-2′-fluoro; (3)..(3) 2′-O-methyl; (4)..(4) …)", "values": [{"measurement": "time course of mRNA KD in DMD format compared to 5-fold higher dose of siRNA-III alone", "setting": "CTNNB1", "result": "faster and greater KD"}, {"measurement": "time course of RISC loading", "setting": "RISC", "result": "faster RISC loading"}]}, {"substance": "siRNA-V: CTNNB1 ds siRNA, passenger SEQ ID NO 1803, guide SEQ ID NO 1808 (sense {NH2C6-invAb}-mCmUfGmUmUfGfGfAmUmUfGfAmUmUmCfGfAfAfAmU*mU[invAb]; guide mUfUmUfCmGfAmAfUmCfAmAfUmCfCmAfAmCfAmGmU*mU)", "values": [{"measurement": "activity (KD)", "setting": "CTNNB1; FIG. 6, peptide dose times within 2 hr (before or after) the siRNA", "result": "~25", "unit": "%"}, {"measurement": "siRNA stability (metabolic stability)", "setting": "[1]", "result": "moderately stable"}]}]}
